Data reported in patent EP0068680A1, “Antibiotics” (BEECHAM GROUP PLC, priority 1981, dated 1983).
Values after ≈ are worked out from the molar mass of the structure shown. Like-named read-outs stand apart in the source and are kept apart here.

Experiments:
[1] = system: Strep. suis (group D) SPS11; assay: MIC against Veterinary Bacteria in vitro (agar dilution)
Protocol: (§1) The activity of the compounds of the Examples against various veterinarily important bacteria, was assayed in vitro using two-fold serial dilutions in Diagnostic Sensitivity Test Agar inoculated with 10^4 organisms.

[2] = system: Pasteurella multocida 1633; assay: MIC against Human Bacteria in vitro (agar dilution); assay type: cell-based; settings: agar with 5% chocolated horse blood, 18 hours at 37°C
[3] = system: M. hyorhinis ATCC 23234; assay: MIC against Mycoplasma in vitro (agar); assay type: cell-based; settings: Friis broth solidified with 0.9% agarose, 6 days at 37°C
[4] = system: M. bovigenitalium ATCC 14173; assay: MIC against Mycoplasma in vitro (agar); assay type: cell-based; settings: Friis broth solidified with 0.9% agarose, 6 days at 37°C
[5] = system: Strep. pyogenes 64/848-C; assay: MIC against Human Bacteria in vitro (agar dilution); assay type: cell-based; settings: Streptococcus pyogenes, agar with 5% chocolated horse blood, 18 hours at 37°C
[6] = system: Staph. aureus Russell; assay: as above; assay type: cell-based; settings: agar with 5% chocolated horse blood, 18 hours at 37°C
[7] = system: Strep. pyogenes R80/421-A; assay: as above; assay type: cell-based; settings: Streptococcus pyogenes, agar with 5% chocolated horse blood, 18 hours at 37°C
[8] = system: M. suipneumoniae HK(2); assay: MIC against Mycoplasma in vitro (agar); assay type: cell-based; settings: Friis broth solidified with 0.9% agarose, 6 days at 37°C
[9] = system: Strep. uberis SPU1; assay: MIC against Veterinary Bacteria in vitro (agar dilution)
Protocol: as §1

[10] = system: K. aerogenes A; assay: MIC against Human Bacteria in vitro (agar dilution); assay type: cell-based; settings: agar with 5% chocolated horse blood, 18 hours at 37°C
[11] = system: M. suipneumoniae JF 435; assay: MIC against Mycoplasma in vitro (agar); assay type: cell-based; settings: Friis broth solidified with 0.9% agarose, 6 days at 37°C
[12] = system: Bacillus subtilis 6633; assay: MIC against Human Bacteria in vitro (agar dilution); assay type: cell-based; settings: agar with 5% chocolated horse blood, 18 hours at 37°C
[13] = system: Staph. aureus Oxford; assay: MIC against Veterinary Bacteria in vitro (agar dilution)
Protocol: as §1

[14] = system: Haemophilus influenzae Q1; assay: MIC against Human Bacteria in vitro (agar dilution); assay type: cell-based; settings: agar with 5% chocolated horse blood, 18 hours at 37°C
[15] = system: P. mirabilis 889; assay: as above; assay type: cell-based; settings: agar with 5% chocolated horse blood, 18 hours at 37°C
[16] = system: Haemophilus influenzae Wy21; assay: as above; assay type: cell-based; settings: agar with 5% chocolated horse blood, 18 hours at 37°C
[17] = system: M. pneumoniae ATCC 15492; assay: MIC against Mycoplasma in vitro (agar); assay type: cell-based; settings: Friis broth solidified with 0.9% agarose, 6 days at 37°C
[18] = system: Corynebacterium pyogenes CY1; assay: MIC against Veterinary Bacteria in vitro (agar dilution); settings: Diagnostic Sensitivity Test Agar, 18 hours at 37°C
Protocol: as §1

CC(=CC(=O)OCCCCC=CCCC(=O)O)CC1OCC(CC2OC2C(C)C(C)O)C(O)C1O (stereo not shown) [Example 1, pseudomonic acid D]
MIC ([1]; Streptococcus suis, 18 h): 1.25 µg/mL (≈ 2.51 µM) | MIC ([2]; read-out: MIC): 0.25 µg/mL (≈ 0.501 µM) | MIC ([3]; Mesomycoplasma hyorhinis, ATCC23234, 144 h, read-out: MIC): 1 µg/mL (≈ 2.01 µM) | MIC ([4]; 144 h, read-out: MIC): 0.1 µg/mL (≈ 0.201 µM) | MIC [5]: 0.25 µg/mL (≈ 0.501 µM) | MIC ([6]; Staphylococcus aureus, read-out: MIC): 1 µg/mL (≈ 2.01 µM) | MIC [7]: 0.5 µg/mL (≈ 1 µM) | MIC ([8]; Mesomycoplasma hyopneumoniae, 144 h, read-out: MIC): 5 µg/mL (≈ 10 µM) | MIC ([9]; Streptococcus uberis, SPU1, 18 h): 0.039 µg/mL (≈ 0.0782 µM) | MIC ([10]; Klebsiella aerogenes, read-out: MIC): > 25 µg/mL | MIC ([11]; Mesomycoplasma hyopneumoniae, JF435, 144 h, read-out: MIC): 5 µg/mL (≈ 10 µM) | MIC ([12]; read-out: MIC): 1 µg/mL (≈ 2.01 µM) | MIC ([13]; Staphylococcus aureus, 18 h): 0.312 µg/mL (≈ 0.626 µM) | MIC ([14]; read-out: MIC): 0.25 µg/mL (≈ 0.501 µM) | MIC ([15]; Proteus mirabilis, read-out: MIC): > 25 µg/mL

Methyl pseudomonate D [Example 2]
MIC ([1]; Strep. suis (group D) SPS11, Diagnostic Sensitivity Test Agar, 18 hours at 37°C): 0.625 µg/mL | MIC [2]: 0.5 µg/mL | MIC [3]: 1.0 µg/mL | MIC [4]: 0.1 µg/mL | MIC [6]: 2.5 µg/mL | MIC [8]: 5.0 µg/mL | MIC ([9]; Strep. uberis SPU1, Diagnostic Sensitivity Test Agar, 18 hours at 37°C): 5.0 µg/mL | MIC [16]: 0.1 µg/mL | MIC [10]: >100 µg/mL | MIC [11]: 5.0 µg/mL | MIC [12]: 0.5 µg/mL | MIC ([13]; Staph. aureus Oxford, Diagnostic Sensitivity Test Agar, 18 hours at 37°C): 0.625 µg/mL | MIC [14]: 0.5 µg/mL | MIC [15]: >100 µg/mL | MIC [17]: >10 µg/mL | MIC [18]: 80 µg/mL
